Patent publication US9890185B2, “Urea derivatives useful as kinase inhibitors” (Respivert Limited, priority 2013, dated 2018)
In brackets after ≈: the same amount, converted by molar mass. Where two headings read alike, the source gives them in different places.

Legend:
[1] = test system: endotoxin (LPS)-induced uveitis; assay: Endotoxin-induced uveitis in rats (in vivo assay vi); set-up: species or system Lewis rats; conditions: eyes of LPS-stimulated rats, topical, 1 mg/mL
Experimental: Male, Lewis rats (6-8 weeks old, Charles River UK Limited) are housed in cages of 3 at 19-21° C. with a 12 h light/dark cycle (07:00/19:00) and fed a standard diet of rodent chow and water ad libitum. […] Untreated rats are injected with PBS. […] Before administration, the solution or suspension to be administered is agitated for 5 minutes to ensure a uniform suspension. 6 hours after LPS dosing, animals are euthanized by overdose with pentobarbitone (i.v.). Following euthanasia, the right eye of each animal is enucleated and dissected into front (anterior) and back (posterior) sections around the lens. Each section is weighed and homogenised in 500 μL of sterile phosphate buffered saline followed by 20 minutes centrifugation at 12000 rpm at 4° C. The resulting supernatant is divided into 3 aliquots and stored at −80° C. until subsequent cytokine analysis by R&D DuoSet ELISA.

[2] = test system: PBMCs; assay: IL-2 release in CD3/CD28 stimulated PBMC cells (assay c); type: cell-based; conditions: Homo sapiens, read-out: IC50 Values for Inhibition of Cytokine Release, PBMCs IL-2
Outline: (§1)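 Sandwich ELISA of supernatant IL-2 and IFN gamma; IC50 from dose-response curve. Cells: density-gradient PBMCs from healthy subjects on plate-bound anti-CD3 0.3 μg/mL + anti-CD28 3 μg/mL, compound added, 3 d culture.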

[3] = biological target: Syk (Homo sapiens (Human), UniProt P43405); assay: Syk enzyme inhibition (FRET, Z-LYTE); type: biochemical
Outline: (§2)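 Fluorescence-ratio kinase assay: 2 hr compound–enzyme preincubation at RT, 1 hr reaction with ATP added as 800 μM (c-Src) or 60 μM (Syk) solution. IC50 derived from percent inhibition curves.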

[4] = biological target: p38 MAPKα isoform (MAPK14) (Homo sapiens (Human), UniProt Q16539); assay: p38 MAPKα enzyme inhibition (FRET, Z-LYTE, Method 2); type: biochemical
p38 MAPKα isoform (MAPK14), sequence (Q16539 whole entry, canonical isoform): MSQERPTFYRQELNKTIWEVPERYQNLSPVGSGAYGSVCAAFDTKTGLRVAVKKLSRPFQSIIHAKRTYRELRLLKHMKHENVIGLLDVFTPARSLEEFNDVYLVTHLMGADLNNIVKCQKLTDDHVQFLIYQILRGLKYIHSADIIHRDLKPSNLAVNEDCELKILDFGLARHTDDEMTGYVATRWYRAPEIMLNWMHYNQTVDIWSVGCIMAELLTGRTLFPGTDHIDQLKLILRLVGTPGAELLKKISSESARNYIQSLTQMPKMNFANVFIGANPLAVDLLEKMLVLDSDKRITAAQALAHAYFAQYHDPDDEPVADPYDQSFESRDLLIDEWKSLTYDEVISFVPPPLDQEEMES
Outline: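 Z-LYTE FRET: p38 MAPKα (80 ng/mL for Method 1, 200 ng/mL for Method 2, pre-dilution) preincubated 2 hr RT with compound (4–0.004 μg/mL solutions), activity read via MAPKAP-K2 phosphorylation after 1 hr RT and 1 hr protease development. Coumarin/fluorescein ratio gives phosphorylation; % inhibition versus uninhibited control, IC50 from concentration-response curve.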

[5] = test system: PBMCs; assay: LPS-induced IL-8 release in PBMC cells (assay b); type: cell-based, human; conditions: Homo sapiens, PBMC; LPS-stimulated PBMCs; read-out: IC50 Values for Inhibition of Cytokine Release, PBMCs IL-8
Outline: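 Human PBMCs from healthy donors, isolated by density gradient, were pretreated with compound for 2 h and then stimulated with 1 ng/mL LPS (E. coli 0111:B4) for 24 h at 37° C, 5% CO2. Supernatant IL-8 and TNFα were measured by sandwich ELISA, and IC50 was taken from the dose-response curve.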

[6] = test system: HT29 cells; assay: IL-1β-induced IL-8 release in HT29 cells (assay d); type: cell-based; conditions: Homo sapiens, HT-29; IL-1β-stimulated HT29 cells; read-out: IC50 Values for Inhibition of Cytokine Release, HT29 cells IL-8
Experimental: HT29 cells, a human colon adenocarcinoma cell line, are plated in a 96 well plate (24 hrs) and pre-treated with compounds at the desired concentration for 2 hours before addition of 5 ng/mL of IL-1β (Abcam) for 24 hours. Supernatants are harvested for IL-8 quantification by Sandwich ELISA (Duo-set, R&D System). The IC50 is determined from the dose response curve.

[7] = biological target: c-Src (Homo sapiens (Human), UniProt P12931); assay: c-Src enzyme inhibition (FRET, Z-LYTE); type: biochemical
c-Src, sequence (P12931 whole entry, looked up): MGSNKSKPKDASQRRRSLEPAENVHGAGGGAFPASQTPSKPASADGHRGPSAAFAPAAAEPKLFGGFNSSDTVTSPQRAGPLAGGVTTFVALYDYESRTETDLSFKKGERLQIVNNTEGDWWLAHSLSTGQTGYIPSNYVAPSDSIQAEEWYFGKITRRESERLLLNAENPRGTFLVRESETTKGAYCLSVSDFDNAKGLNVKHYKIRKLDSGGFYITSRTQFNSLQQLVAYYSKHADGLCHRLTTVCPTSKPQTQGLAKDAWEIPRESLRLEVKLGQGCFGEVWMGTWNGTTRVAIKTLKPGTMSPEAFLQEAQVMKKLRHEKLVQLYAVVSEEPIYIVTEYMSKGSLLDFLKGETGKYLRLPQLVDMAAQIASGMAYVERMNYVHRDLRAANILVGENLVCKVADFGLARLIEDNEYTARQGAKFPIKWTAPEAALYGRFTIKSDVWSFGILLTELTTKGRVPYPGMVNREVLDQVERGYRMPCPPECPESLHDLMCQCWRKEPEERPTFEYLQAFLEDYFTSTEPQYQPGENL
Outline: as §2

[8] = test system: PBMCs; assay: IFN gamma release in CD3/CD28 stimulated PBMC cells (assay c); type: cell-based; conditions: Homo sapiens, read-out: IC50 Values for Inhibition of Cytokine Release, PBMCs IFNγ
Outline: as §1

[9] = test system: PBMCs; assay: Cell mitosis assay in PBMCs (assay g); type: cell-based; conditions: Homo sapiens, PBMC, test compound 5 μg/mL
Outline: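 Human PBMCs from healthy donors, stimulated with 2% PHA for 48 hr, then exposed to test compounds for 20 hr, with demecolcine (0.1 μg/mL) added 2 hr before harvest. Cells fixed/permeabilised, stained for phospho-histone 3 and propidium iodide, and read by flow cytometry gated on lymphocytes. % mitosis inhibition vs 0.5% DMSO vehicle.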

[10] = biological target: GSK 3α (Homo sapiens (Human), UniProt P49840); assay: GSK 3α enzyme inhibition (FRET, Z-LYTE, Method 2); type: biochemical; conditions: read-out: IC50 Values for Enzyme Inhibition, GSK3α
GSK 3α, sequence (P49840 whole entry): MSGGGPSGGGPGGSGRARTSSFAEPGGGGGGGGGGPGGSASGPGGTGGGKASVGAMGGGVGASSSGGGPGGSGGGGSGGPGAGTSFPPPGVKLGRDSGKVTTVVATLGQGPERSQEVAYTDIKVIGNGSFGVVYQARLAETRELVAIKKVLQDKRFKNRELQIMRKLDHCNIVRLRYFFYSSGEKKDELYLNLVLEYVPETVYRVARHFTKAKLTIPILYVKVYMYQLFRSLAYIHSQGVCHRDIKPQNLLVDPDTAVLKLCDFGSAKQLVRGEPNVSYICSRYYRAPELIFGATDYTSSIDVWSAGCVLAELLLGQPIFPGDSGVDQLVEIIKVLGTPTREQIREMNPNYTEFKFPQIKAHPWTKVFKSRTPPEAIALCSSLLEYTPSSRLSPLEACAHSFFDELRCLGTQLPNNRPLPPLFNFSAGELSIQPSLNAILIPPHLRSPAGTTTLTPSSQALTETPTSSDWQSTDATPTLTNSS
Outline: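 Phosphorylation of a dual-labelled synthetic peptide by human GSK3α is read as a coumarin/fluorescein ratio after protease development. Compound stocks run 4 to 0.004 μg/mL, and ATP stock is 40 μM.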

[11] = Solubility in fasted-state simulated colonic fluid (FaSSCoF); type: physicochemical; conditions: thermodynamic from solid, pH 6.5, 25° C.; for solubility thermodynamic at 24 h: 25 °C, pH 6.5, fassgf or other biorelevant
Experimental: The solubilities of compounds of the invention in FaSSCoF at pH 6.5 are determined using a modification of a previously-reported procedure (Vertzoni, M., et al. Pharm. Res. 2010, 27, 2187-2196). In place of the bile salt extract employed in the original procedure (which extract is no longer available), the modified procedure uses a mixture of sodium taurochlorate (0.15 g), glycocholic acid (0.15 g), ursodeoxycholic acid (0.05 g), cholic acid (0.05 g), and glycodeoxycholic acid (0.05 g). These five bile acids are ground together with a mortar and pestle to produce a fine white powder that is incorporated into the FaSSCoF, as outlined below.
Tris(hydroxymethyl)aminomethane (Tris; 0.275 g) and maleic acid (0.44 g) are dissolved in water (35 mL) to give a solution whose pH is adjusted to 6.5 by treatment with 0.5M NaOH (ca. 12 mL). The solution is then made up to 50 mL with water. A portion of this Tris/maleate buffer solution (ca. 25 mL) is added to a 0.5 L round-bottomed flask, before being treated with 0.00565 g of the bile acid mixture described above. Solutions of phosphatidylcholine (0.0111 g) in DCM (0.15 mL) and palmitic acid (0.0013 g) in DCM (0.15 mL) are added, then the organic solvent is evaporated off under reduced pressure at 40° C. until a clear solution, with no perceptible DCM odour, is achieved. The volume of the evaporated solution is adjusted to 50 mL by addition of the remainder of Tris/maleate buffer, then BSA (0.115 g) is added, before being dissolved by gentle agitation.
Test compounds are suspended in the pH 6.5 FaSSCoF medium to give a maximum final concentration of ca. 6 mg/mL. The suspensions are equilibrated at 25° C. for 24 h, before being filtered through a glass fibre C filter. The filtrates are then diluted as appropriate for injection and quantification by HPLC with reference to a standard. Different volumes of the standard, diluted and undiluted sample solutions are injected and the solubilities are calculated using the peak areas determined by integration of the peak found at the same retention time as the principal peak in the standard injection.

C[C@@H]1C[C@H]2[C@@H]3CCC4=CC(=O)C=C[C@]4(C)[C@@]3(F)[C@@H](O)C[C@]2(C)[C@@]1(O)C(=O)CO [Dexamethasone, dexamethasone, reference compound]
Cell counts [1]: 30.1 ± 6.4

COc1cc(Nc2cc(Oc3ccc(NC(=O)Nc4cc(C(C)(C)C)cc(CC(N)=O)c4OC)c4ccccc34)ccn2)cc(C(N)=O)c1 [Example 47, 3-((4-((4-(3-(3-(2-Amino-2-oxoethyl)-5-(tert-butyl)-2-methoxyphenyl)ureido)naphthalen-1-yl)oxy)pyridin-2-yl)amino)-5-methoxybenzamide]
IC50 [2]: 57.1 nM
IC50 [3]: > 1510 nM
IC50 [4]: 36 nM
IC50 [5]: 2.2 nM
IC50 [6]: 26.1 nM
IC50 [7]: 34 nM
IC50 [8]: 3 nM
inhibition at 5 µg/mL [9]: 30.1%
IC50 [10]: 1460 nM

COc1cc(Nc2cc(Oc3ccc(NC(=O)Nc4cc(C(C)(C)C)cc([S+](C)[O-])c4OC)c4ccccc34)ccn2)cc(C(=O)NCCN2CCN(C)CC2)c1 (centres unmarked) [Example 84, 3-((4-((4-(3-(5-(tert-Butyl)-2-methoxy-3-(methylsulfinyl)phenyl)ureido)naphthalen-1-yl)oxy)pyridin-2-yl)amino)-5-methoxy-N-(2-(4-methylpiperazin-1-yl)ethyl)benzamide]
IC50 [5]: 1.8 nM
solubility thermodynamic at 24 h ([11]; Run 1, read-out: pH 6.5 FaSSCoF Solubility Run 1): 15 µg/mL (≈ 18.9 µM)
solubility thermodynamic at 24 h ([11]; Run 2, read-out: pH 6.5 FaSSCoF Solubility Run 2): 16 µg/mL (≈ 20.2 µM)
solubility at 24 h ([11]; fassgf or other biorelevant, read-out: Solubility in the FaSSCoF medium): > 10 µg/mL
